Test results: ChEMBL document CHEMBL3885861, “Open TG-GATES”

Species: Rattus norvegicus
Experiment: Open TG-GATES - Regimen: Single
Assay type: toxicity, organism-based, Sprague-Dawley
Parameters: regimen Single, gender Male, age 6 weeks
Conditions: in vivo, po, 150 mg/kg, route gavage, dose level High; for APTT / Bas / Eos / Fbg / Hb / Ht / Lym / MCH / MCHC / MCV / Mono / Neu / PT / Plat / RBC / Ret / WBC: tissue Blood; for KIDNEY_L / KIDNEY_R / KIDNEY_TOTAL: tissue Kidney; for LIVER: tissue Liver; for A/G / ALP / ALT / AST / BUN / CRE / Ca / Cl / DBIL / GLC / IP / K / LDH / Na / PL / RALB / TBIL / TC / TG / TP / gamma-GTP: tissue Plasma

## CC1=C(CC(=O)O)c2cc(F)ccc2/C1=C\c1ccc([S+](C)[O-])cc1 (configuration not stated)
3 h
  TERMINAL_BW: 202.5 g
  APTT: 18.7 s
  Bas: 0%
  Eos: 0.8%
  Fbg: 270.6 mg/dL
  Hb: 12.9 g/dL
  Ht: 38.9%
  Lym: 76.4%
  MCH: 21 pg
  MCHC: 33.2%
  MCV: 63.4 fL
  Mono: 3%
  Neu: 18.8%
  PT: 14.3 s
  Plat: 126.3 x10_4/uL
  RBC: 615.4 x10_4/ul
  Ret: 7.8%
  WBC: 82 x10_2/uL
  KIDNEY_L: 0.9 g
  KIDNEY_R: 0.9 g
  KIDNEY_TOTAL: 1.8 g
  LIVER: 8.9 g
  A/G: 1
  ALP: 1334 IU/L
  ALT: 39.2 IU/L
  AST: 71.2 IU/L
  BUN: 10.4 mg/dL
  CRE: 0.2 mg/dL
  Ca: 10.7 mg/dL
  Cl: 103.8 meq/L
  DBIL: 0.006 mg/dL
  GLC: 161.2 mg/dL
  IP: 8.1 mg/dL
  K: 4 meq/L
  LDH: 67.8 IU/L
  Na: 139.8 meq/L
  PL: 144.4 mg/dL
  RALB: 2.5 g/dL
  TBIL: 0.044 mg/dL
  TC: 75.6 mg/dL
  TG: 71.4 mg/dL
  TP: 5.2 g/dL
  gamma-GTP: 1 IU/L
6 h
  TERMINAL_BW: 201.1 g
  APTT: 17.9 s
  Bas: 0%
  Eos: 0.4%
  Fbg: 280 mg/dL
  Hb: 13.3 g/dL
  Ht: 40.9%
  Lym: 65.8%
  MCH: 21 pg
  MCHC: 32.7%
  MCV: 64.4 fL
  Mono: 3.6%
  Neu: 29.2%
  PT: 14 s
  Plat: 133.5 x10_4/uL
  RBC: 635 x10_4/ul
  Ret: 8.1%
  WBC: 68.2 x10_2/uL
  KIDNEY_L: 0.9 g
  KIDNEY_R: 1 g
  KIDNEY_TOTAL: 1.9 g
  LIVER: 8.2 g
  A/G: 1
  ALP: 1506 IU/L
  ALT: 40 IU/L
  AST: 71.4 IU/L
  BUN: 10.4 mg/dL
  CRE: 0.2 mg/dL
  Ca: 10.7 mg/dL
  Cl: 104.8 meq/L
  DBIL: 0.01 mg/dL
  GLC: 168.4 mg/dL
  IP: 9.3 mg/dL
  K: 4.1 meq/L
  LDH: 77.6 IU/L
  Na: 141.2 meq/L
  PL: 135.4 mg/dL
  RALB: 2.6 g/dL
  TBIL: 0.04 mg/dL
  TC: 70.6 mg/dL
  TG: 33 mg/dL
  TP: 5.3 g/dL
  gamma-GTP: 1.4 IU/L
9 h
  TERMINAL_BW: 200.1 g
  APTT: 16.2 s
  Bas: 0%
  Eos: 1%
  Fbg: 294.8 mg/dL
  Hb: 13.3 g/dL
  Ht: 40.5%
  Lym: 67.4%
  MCH: 20.8 pg
  MCHC: 32.8%
  MCV: 63.5 fL
  Mono: 3.2%
  Neu: 28%
  PT: 13.8 s
  Plat: 122 x10_4/uL
  RBC: 638 x10_4/ul
  Ret: 7.8%
  WBC: 50.2 x10_2/uL
  KIDNEY_L: 0.9 g
  KIDNEY_R: 0.9 g
  KIDNEY_TOTAL: 1.8 g
  LIVER: 7.6 g
  A/G: 1
  ALP: 1365 IU/L
  ALT: 37.4 IU/L
  AST: 68.8 IU/L
  BUN: 9.8 mg/dL
  CRE: 0.2 mg/dL
  Ca: 10.4 mg/dL
  Cl: 107 meq/L
  DBIL: 0.014 mg/dL
  GLC: 169.4 mg/dL
  IP: 10.1 mg/dL
  K: 4.2 meq/L
  LDH: 72 IU/L
  Na: 141.4 meq/L
  PL: 127.8 mg/dL
  RALB: 2.6 g/dL
  TBIL: 0.046 mg/dL
  TC: 68.4 mg/dL
  TG: 40 mg/dL
  TP: 5.2 g/dL
  gamma-GTP: 1 IU/L
24 h
  TERMINAL_BW: 203.3 g
  APTT: 15.4 s
  Bas: 0%
  Eos: 0.4%
  Fbg: 378 mg/dL
  Hb: 10.3 g/dL
  Ht: 32%
  Lym: 54.4%
  MCH: 20.7 pg
  MCHC: 32.3%
  MCV: 64 fL
  Mono: 2.4%
  Neu: 42%
  PT: 13 s
  Plat: 78.4 x10_4/uL
  RBC: 500.2 x10_4/ul
  Ret: 8.5%
  WBC: 96.3 x10_2/uL
  KIDNEY_L: 0.9 g
  KIDNEY_R: 0.9 g
  KIDNEY_TOTAL: 1.8 g
  LIVER: 9.1 g
  A/G: 0.9
  ALP: 747.4 IU/L
  ALT: 30.2 IU/L
  AST: 42.6 IU/L
  BUN: 24 mg/dL
  CRE: 0.2 mg/dL
  Ca: 9.3 mg/dL
  Cl: 105.2 meq/L
  DBIL: 0.008 mg/dL
  GLC: 162.4 mg/dL
  IP: 9.8 mg/dL
  K: 5.1 meq/L
  LDH: 58.8 IU/L
  Na: 137.2 meq/L
  PL: 117 mg/dL
  RALB: 1.5 g/dL
  TBIL: 0.024 mg/dL
  TC: 67.4 mg/dL
  TG: 126.6 mg/dL
  TP: 3.2 g/dL
  gamma-GTP: 0.8 IU/L
